Results taken from patent EP1714639A1, “Cosmetic compositions containing piperazine derivatives” (L'ORÉAL, priority 2005, dated 2006).

What was measured:
[1] = system: canaux calciques de type L; experiment: binding test on L-type calcium channels ([3H](-) D 888 displacement, verapamil site); design: species or system rat; settings: for % inhibition de la liaison: 1 µM in DMSO, [3H](-) D 888 0.5 nM, rat cerebral cortex homogenates, 60 min/22°C
Description: On a évalué la capacité des composés des Exemples 1, 4 et 5 (à 1 µM dans le DMSO) à inhiber par compétition la fixation d'[…] de canaux calciques de type L.
Les études sont réalisées à partir d'homogénats de cortex cérébral de rat (membranes isolées présentant à leur surface des canaux calciques de type L) selon la méthode décrite par Reynolds I.J. et al., 1986, J. Pharmacol. Exp. Ther., 237, p.731.
Les conditions expérimentales sont les suivantes :
D888 qui est le [^3H](-) desmethoxyverapamil sert de ligand spécifique radiomarqué et D600 qui est le chlorhydrate de (±)méthoxyvérapamil sert de molécule de référence.
La liaison spécifique d'un ligand (D888 marqué) aux récepteurs (canaux calciques de type L, site vérapamil) est définie comme la différence entre la liaison totale et la liaison non spécifique déterminée en présence d'un excès de ligand froid (non radioactif). Les résultats sont exprimés en pourcentage d'inhibition de la liaison spécifique du témoin en présence du composé testé.

[2] = anti-wrinkle activity in vivo
[3] = system: cellules musculaires striées humaines; experiment: nerve-muscle co-culture test (inhibition of muscle fibre contractions); assay type: cell-based; settings: for inhibition at 10 µM / inhibition at 100 µM: 60 s incubation, contractions counted over 30 s, triplicate, read-out: % d'inhibition des contractions
Description: Les composés des Exemples 1 et 2 ont été testés sur un modèle de co-culture nerfs-muscles qui permet de recréer un arc moteur en innervant des cellules musculaires striées humaines avec des explants de moelle épinière et de ganglions rachidiens d'embryons de rat.
Des cellules musculaires humaines, issues de prélèvements de muscles striés de donneur sain, sont ensemencées dans des puits de 1,8 cm^2 de section (boîtes de culture de 24 puits). Après 10 jours de culture, ces cellules forment une monocouche et fusionnent. A ce stade, des explants de moelle épinière d'embryons de rat de 13 jours contenant les ganglions rachidiens sont déposées sur la culture.
La croissance des neurites est visible en dehors de l'explant de moelle épinière après un jour de culture. Les premières contractions des fibres musculaires sont observées après 5 à 6 jours de co-culture et après 3 semaines, toutes les fibres musculaires au voisinage des explants se contractent.
Le co-cultures sont utilisées après 21 jours, quand les fibres musculaires sont striées et possèdent des jonctions neuromusculaires différenciées matures.
Une fibre musculaire ayant des contractions régulières (au moins 60 contractions par minute) est alors sélectionnée dans trois puits de culture différents et le nombre de contractions est comptabilisé sur 30 secondes. Les composés testés, dilués dans le DMSO, sont ensuite incubés pendant 60 secondes dans ces puits, à la concentration de 10 µM pour le composé de l'Exemple 1 et de 10 et 100 µM pour le composé de l'Exemple 2. A la fin de l'incubation, le nombre de contractions est à nouveau comptabilisé sur 30 secondes. Le test est réalisé en triplicata.

SMILES | % inhibition de la liaison [1] | inhibition at 10 µM [3] | inhibition at 100 µM [3] | further results
OCCCN1CCN(CCCc2ccccc2)CC1 [compound 4, 1-(3-hydroxpropyl) 4-(3-phenylpropyl)-piperazine] | 22% |  |  | 
CCN1CCN(CCCc2ccccc2)CC1 [compound 5, 1-ethyl 4-(3-phenylpropyl)-piperazine] | 16% |  |  | 
CN1C(=O)CN=C(c2ccccc2)c2cc(Cl)ccc21 [diazépam, reference compound] |  |  |  | activité anti-rides [2]: démontrée in vivo; contractions des fibres musculaires ([3]; earlier finding of the applicant in this model): inhibait les contractions des fibres musculaires
C(=Cc1ccccc1)CN1CCN(CCCc2ccccc2)CC1 [compound 1, 1-(3-phenyl-2-propenyl)-4-(3-phenylpropyl)-piperazine] | 30% | 65% | 100% | 
c1ccc(CCCN2CCN(CCc3ccccc3)CC2)cc1 [compound 2, 1-(2-phenylethyl)-4-(3-phenylpropyl)-piperazine] |  | 50% | 100% | inhibition de la liaison spécifique du témoin aux canaux calciques ([1]; similar test, concentration 50 µM): 50%
